Assay results as given in patent publication US12252475B2, “Crystal forms of immunomodulators” (Curis, Inc., priority 2017, dated 2025).
Converted amounts (≈) assume the structure as drawn. Like-named read-outs stand apart in the source and are kept apart here.

Legend:
Format in all cases: physicochemical
[1] = Solid stability of anhydrous crystal Form A on storage (XRPD form, TGA, HPLC purity); details: for HPLC Purity (area %): solid
Description: (§1) Purity analysis was performed on an Agilent HP1100 series system equipped with a diode array detector and using ChemStation software vB.04.03 using the method detailed below in Table 3.
Thermogravimetric analysis (TGA) data were collected using a TA Q500/Q5000 TGA from TA Instruments. Differential scanning calorimetry (DSC) was performed using a TA Q200/Q2000 DSC from TA Instruments.
About 40 mg of a sample of formula (I) Form A was kept at each corresponding condition for one month without significant changes. […] No significant effect of the shoulder peaks on form or HPLC purity was observed.
Samples of formula (I) anhydrous crystalline Form A were stored as solids at 25° C./60% RH, 30° C./˜56%, and 40° C./75% RH for the time periods listed below. The samples were prepared in duplicate with an offset of 2 weeks. Each replicate was stored in a different container.

[2] = Solution stability of Form A in water/organic solvent mixtures (HPLC purity); details: for HPLC purity, API (RRT 1.00): about 10 mg/mL; for chemical purity in solution: time 0, across water/organic solvent mixtures
Description: as §1
Samples of formula (I) anhydrous crystalline Form A were stored as solutions in water mixed with acetonitrile, tetrahydrofuran, isopropyl alcohol, or ethanol at room temperature and 35° C. for 7-8 days. The sample concentration was about 10 mg/mL and was kept stirring.

[3] = Solubility in simulated gastric fluid and pH-adjusted water at room temperature; details: thermodynamic from solid
Source text: The pH values of the aqueous solutions after the solubility test were 5.13 and 5.15, respectively.

[4] = Equilibrium solubility in water; details: for Final Form / solubility at 6 h: Water; for Final Form: solids checked by XRPD; for solubility at 6 h: thermodynamic from solid, equilibrated 6 hrs, HPLC
Description: Equilibrium solubility of formula (I) anhydrous Form A was measured in the water at 20° C. and 30° C. All samples were equilibrated at temperature for 6 hrs, and the solubility of supernatant was measured by HPLC, while the solids were checked by XRPD. (See Table 10.)

[5] = Dynamic vapor sorption (DVS)
[6] = Seed (after ground), 5° C., sealed

Final Form ([1]; 25° C., 60% RH, 1 month): Form A
TGA (%) ([1]; 25° C., 60% RH, 1 month): 0.60%
Final Form ([1]; 25° C., 60% RH, 3 months): Form A
TGA (%) ([1]; 25° C., 60% RH, 3 months): 2.8%
Final Form ([1]; 40° C., 75% RH, 1 month): Form A
TGA (%) ([1]; 40° C., 75% RH, 1 month): 1.0%
Final Form ([1]; 40° C., 75% RH, 3 months): Form A
TGA (%) ([1]; 40° C., 75% RH, 3 months): 1.9%
Final Form ([1]; 60° C., sealed, 1 month): Form A
TGA (%) ([1]; 60° C., sealed, 1 month): 0.6%
Final Form ([1]; 60° C., sealed, 3 months): Form A
TGA (%) ([1]; 60° C., sealed, 3 months): 2.1%
Final Form ([1]; Initial): Form A
TGA (%) ([1]; Initial): 0.40%
Final Form [1, 6]: Form A
TGA (%) [1, 6]: 0.4%
solid form and particle morphology after storage ([1]; one month and three months at 25° C./60% RH, 40° C./75% RH, and 60° C.): remained unchanged
degradation (chemical purity of solid sample) after storage ([1]; solid sample of about 40 mg, storage for one month): no significant degradation was observed
HPLC Purity (area %) ([1]; 25° C., 60% RH, 1 month): 99.83 area %
HPLC Purity (area %) ([1]; 25° C., 60% RH, 3 months): 99.80 area %
HPLC Purity (area %) ([1]; 40° C., 75% RH, 1 month): 99.81 area %
HPLC Purity (area %) ([1]; 40° C., 75% RH, 3 months): 99.79 area %
HPLC Purity (area %) ([1]; 60° C., sealed, 1 month): 99.85 area %
HPLC Purity (area %) ([1]; 60° C., sealed, 3 months): 99.74 area %
HPLC Purity (area %) ([1]; Initial): 99.86 area %
HPLC purity, API (RRT 1.00) ([2]; 35° C., ACN/H2O (1:1, v/v), 0 h): 99.58%
HPLC purity, API (RRT 1.00) ([2]; 35° C., ACN/H2O (1:1, v/v), 4 h): 99.44%
HPLC purity, API (RRT 1.00) ([2]; 35° C., ACN/H2O (1:1, v/v), 24 h): 98.42%
HPLC purity, API (RRT 1.00) ([2]; 35° C., EtOH/H2O (1:1, v/v), 0 h): 99.58%
HPLC purity, API (RRT 1.00) ([2]; 35° C., EtOH/H2O (1:1, v/v), 4 h): 99.47%
HPLC purity, API (RRT 1.00) ([2]; 35° C., EtOH/H2O (1:1, v/v), 24 h): 99.11%
HPLC purity, API (RRT 1.00) ([2]; 35° C., IPA/H2O (1:2, v/v), 0 h): 99.57%
HPLC purity, API (RRT 1.00) ([2]; 35° C., IPA/H2O (1:2, v/v), 4 h): 99.35%
HPLC purity, API (RRT 1.00) ([2]; 35° C., IPA/H2O (1:2, v/v), 24 h): 99.21%
HPLC purity, API (RRT 1.00) ([2]; 35° C., THF/H2O (1:1, v/v), 0 h): 99.56%
HPLC purity, API (RRT 1.00) ([2]; 35° C., THF/H2O (1:1, v/v), 4 h): 99.37%
HPLC purity, API (RRT 1.00) ([2]; 35° C., THF/H2O (1:1, v/v), 24 h): 98.30%
chemical purity in solution ([2]; 35° C.): about 99.6%
HPLC purity, API (RRT 1.00) ([2]; RT, ACN/H2O (1:1, v/v), 0 h): 99.65%
HPLC purity, API (RRT 1.00) ([2]; RT, ACN/H2O (1:1, v/v), 4 h): 99.51%
HPLC purity, API (RRT 1.00) ([2]; RT, ACN/H2O (1:1, v/v), 24 h): 99.24%
HPLC purity, API (RRT 1.00) ([2]; RT, EtOH/H2O (1:1, v/v), 0 h): 99.58%
HPLC purity, API (RRT 1.00) ([2]; RT, EtOH/H2O (1:1, v/v), 4 h): 99.47%
HPLC purity, API (RRT 1.00) ([2]; RT, EtOH/H2O (1:1, v/v), 24 h): 99.11%
HPLC purity, API (RRT 1.00) ([2]; RT, IPA/H2O (1:2, v/v), 0 h): 99.59%
HPLC purity, API (RRT 1.00) ([2]; RT, IPA/H2O (1:2, v/v), 4 h): 99.52%
HPLC purity, API (RRT 1.00) ([2]; RT, IPA/H2O (1:2, v/v), 24 h): 99.21%
HPLC purity, API (RRT 1.00) ([2]; RT, THF/H2O (1:1, v/v), 0 h): 99.64%
HPLC purity, API (RRT 1.00) ([2]; RT, THF/H2O (1:1, v/v), 4 h): 99.47%
HPLC purity, API (RRT 1.00) ([2]; RT, THF/H2O (1:1, v/v), 24 h): 99.19%
chemical purity in solution ([2]; room temperature): about 99.6%
solubility ([3]; simulated gastric fluid (SGF), simulated gastric fluid, read-out: solubility in simulated gastric fluid (SGF)): > 114 mg/mL
solubility ([3]; water with pH adjusted by NaOH and HCl, aqueous buffer, pH 7.08 (pH 5.13 after test), read-out: solubility in water solution with pH adjusted by NaOH and HCl): 87.5 to 117 mg/mL (≈ 243 to 324 mM)
solubility ([3]; water with pH adjusted by NaOH and HCl, aqueous buffer, pH 9.14 (pH 5.15 after test), read-out: solubility in water solution with pH adjusted by NaOH and HCl): 83.5 to 111 mg/mL (≈ 232 to 309 mM)
Final Form ([4]; 20° C.): Form A
Final Form ([4]; 30° C.): Form A
form change during solubility testing ([4]; XRPD, FIG. 9): No form change was observed
solubility at 6 h ([4]; 20° C.): 125 mg/mL (≈ 347 mM)
solubility at 6 h ([4]; 30° C.): 137 mg/mL (≈ 381 mM)
hygroscopicity ([5]; DVS, up to 80% RH): slightly hygroscopic
form change during DVS testing ([5]; XRPD before and after DVS, FIG. 11): No form change was observed
mass change in DVS ([5]; up to 80% RH): about 0.66%
Structure (SMILES): CC(O)[C@H](NC(=O)N[C@@H](CC(N)=O)c1nc([C@@H](N)CO)no1)C(=O)O (stereo in doubt) [Form A]
